Measurements taken from US8022091B2, “Triazole derivative” (Taisho Pharmaceutical Co., Ltd., priority 2006, dated 2011).

These compounds were tested against T1, human Edg-1 (S1P1) (Homo sapiens, UniProt P21453) (assay: S1P1 binding assay: inhibition of [33P]-S1P binding to membrane fraction of HEK-293 cells transferred with the human Edg-1 (S1P1) gene). Conditions: test compound 10 μM; inhibition of [33P]-S1P binding, membrane fraction.
T1 construct: expressed in transfected cells; host or cells: HEK-293
T1 sequence (P21453 whole entry): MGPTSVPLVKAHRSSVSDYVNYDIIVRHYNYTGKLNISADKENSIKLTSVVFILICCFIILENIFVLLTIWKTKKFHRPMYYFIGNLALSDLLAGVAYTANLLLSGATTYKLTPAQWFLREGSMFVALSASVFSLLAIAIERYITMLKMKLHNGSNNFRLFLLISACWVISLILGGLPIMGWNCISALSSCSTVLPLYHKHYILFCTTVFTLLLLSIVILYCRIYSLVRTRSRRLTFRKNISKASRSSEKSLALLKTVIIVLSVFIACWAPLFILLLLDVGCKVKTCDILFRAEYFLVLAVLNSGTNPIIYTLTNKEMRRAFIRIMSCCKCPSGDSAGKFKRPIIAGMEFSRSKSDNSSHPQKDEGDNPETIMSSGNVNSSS
Outline: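 Membranes from S1P1-transfected HEK-293 cells incubated 1 h at 30° C in pH 7.4 Tris buffer with fatty acid-free BSA, 0.1 nM [33P]-S1P and test compound (0.1% DMSO). Filter-bound radioactivity was counted; inhibition corrected for binding to untransfected-cell membranes, and IC50 derived from concentration series.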

| Compound | inhibition at 10 µM |
| --- | --- |
| CCn1c(Oc2cccc(N3CCN(C)CC3)c2)nnc1[C@@H](C)NS(=O)(=O)c1ccc(Br)cc1 [Compound 499] | 109% |
| CCn1c(Oc2cccc(N3CCN(C)CC3)c2)nnc1[C@@H](C)NS(=O)(=O)c1ccc(C(C)(C)C)cc1 [Compound 500] | 90.2% |
| CCn1c(Oc2cccc(N3CCN(C)CC3)c2)nnc1[C@@H](C)NS(=O)(=O)c1ccccc1Br [Compound 501] | 61.7% |
| CCCCOc1ccc(S(=O)(=O)N[C@H](C)c2nnc(Oc3cccc(N4CCN(C)CC4)c3)n2CC)cc1 [Compound 502] | 75.5% |
| CCn1c(Oc2cccc(N3CCN(C)CC3)c2)nnc1[C@@H](C)NS(=O)(=O)c1cccc(Br)c1 [Compound 503] | 116% |
| CCn1c(Oc2cccc(N3CCN(C)CC3)c2)nnc1[C@@H](C)NS(=O)(=O)c1ccc(Br)cc1OC(F)(F)F [Compound 504] | 53.5% |
| CCn1c(Oc2cccc(N3CCN(C)CC3)c2)nnc1[C@@H](C)NS(=O)(=O)c1sc2ccc(Cl)cc2c1C [Compound 509] | 87% |
| CCn1c(Oc2cccc(N3CCN(C)CC3)c2)nnc1[C@@H](C)NS(=O)(=O)c1cc(C)c(Cl)cc1C [Compound 510] | 114% |
| CCn1c(Oc2cccc(N3CCN(C)CC3)c2)nnc1[C@@H](C)NS(=O)(=O)c1ccc(OC)c(OC)c1 [Compound 513] | 96.6% |
| CCc1ccc(S(=O)(=O)N[C@H](C)c2nnc(Oc3cccc(N4CCN(C)CC4)c3)n2CC)cc1 [Compound 515] | 109% |
| CCn1c(Oc2cccc(N3CCN(C)CC3)c2)nnc1[C@@H](C)NS(=O)(=O)c1ccc(F)cc1 [Compound 516] | 107% |
| CCn1c(Oc2cccc(N3CCN(C)CC3)c2)nnc1[C@@H](C)NS(=O)(=O)CCc1cccc2ccccc12 [Compound 523] | 114% |
| CCn1c(Oc2cccc(N3CCN(C)CC3)c2)nnc1[C@@H](C)NS(=O)(=O)c1c(F)c(F)c(F)c(F)c1F [Compound 524] | 83% |
| CCn1c(Oc2cccc(N3CCN(C)CC3)c2)nnc1[C@@H](C)NS(=O)(=O)c1ccc(I)cc1 [Compound 525] | 111% |
| CCn1c(Oc2cccc(N3CCN(C)CC3)c2)nnc1[C@@H](C)NS(=O)(=O)c1cc(Cl)c(Cl)cc1Cl [Compound 526] | 112% |
| CCn1c(Oc2cccc(N3CCN(C)CC3)c2)nnc1[C@@H](C)NS(=O)(=O)c1c(C(C)C)cc(C(C)C)cc1C(C)C [Compound 527] | 52.1% |
| CCn1c(Oc2cccc(N3CCN(C)CC3)c2)nnc1[C@@H](C)NS(=O)(=O)c1cccc(C(F)(F)F)c1 [Compound 530] | 115% |
| CCn1c(Oc2cccc(N3CCN(C)CC3)c2)nnc1[C@@H](C)NS(=O)(=O)c1ccc(OC(F)(F)F)cc1 [Compound 532] | 99.2% |
| CCn1c(Oc2cccc(N3CCN(C)CC3)c2)nnc1[C@@H](C)NS(=O)(=O)c1cccc(C)c1 [Compound 534] | 101% |
| CCn1c(Oc2cccc(N3CCN(C)CC3)c2)nnc1[C@@H](C)NS(=O)(=O)c1cc(C)ccc1C [Compound 537] | 96.7% |
| CCn1c(Oc2cccc(N3CCN(C)CC3)c2)nnc1[C@@H](C)NS(=O)(=O)c1c(C)nn(C)c1Cl [Compound 540] | 64.3% |
| CCn1c(Oc2cccc(N3CCN(C)CC3)c2)nnc1[C@@H](C)NS(=O)(=O)c1c(C)noc1C [Compound 541] | 65.5% |

| Compound | inhibition at 10 µM |
| --- | --- |
| CCn1c(Oc2cccc(N3CCN(C)CC3)c2)nnc1[C@@H](C)NS(=O)(=O)c1c(Cl)ccc2nonc12 [Compound 542] | 50.1% |
| CCn1c(Oc2cccc(N3CCN(C)CC3)c2)nnc1[C@@H](C)NS(=O)(=O)c1ccc(C(=O)OC)n1C [Compound 543] | 112% |
| CCn1c(Oc2cccc(N3CCN(C)CC3)c2)nnc1[C@@H](C)NS(=O)(=O)c1ccccc1C(=O)OC [Compound 545] | 50.7% |
| CCn1c(Oc2cccc(N3CCN(C)CC3)c2)nnc1[C@@H](C)NS(=O)(=O)c1ccccc1C(F)(F)F [Compound 546] | 55.8% |
| CCCc1ccc(S(=O)(=O)N[C@H](C)c2nnc(Oc3cccc(N4CCN(C)CC4)c3)n2CC)cc1 [Compound 548] | 96.7% |
| CCn1c(Oc2cccc(N3CCN(C)CC3)c2)nnc1[C@@H](C)NS(=O)(=O)c1c(C)c(C)cc(C)c1C [Compound 549] | 89.2% |
| CCn1c(Oc2cccc(N3CCN(C)CC3)c2)nnc1[C@@H](C)NS(=O)(=O)c1cccc(Cl)c1Cl [Compound 550] | 104% |
| CCn1c(Oc2cccc(N3CCN(C)CC3)c2)nnc1[C@@H](C)NS(=O)(=O)c1c(C)cccc1Cl [Compound 551] | 76.1% |
| CCn1c(Oc2cccc(N3CCN(C)CC3)c2)nnc1[C@@H](C)NS(=O)(=O)c1cc(C(F)(F)F)cc(C(F)(F)F)c1 [Compound 553] | 107% |
| CCn1c(Oc2cccc(N3CCN(C)CC3)c2)nnc1[C@@H](C)NS(=O)(=O)c1cc(Cl)cc(Cl)c1 [Compound 554] | 116% |
| CCn1c(Oc2cccc(N3CCN(C)CC3)c2)nnc1[C@@H](C)NS(=O)(=O)c1cccc(Cl)c1C [Compound 555] | 102% |
| CCn1c(Oc2cccc(N3CCN(C)CC3)c2)nnc1[C@@H](C)NS(=O)(=O)c1cccc(OC)c1 [Compound 556] | 105% |
| CCn1c(Oc2cccc(N3CCN(C)CC3)c2)nnc1[C@@H](C)NS(=O)(=O)c1cc(F)c(Br)cc1F [Compound 557] | 107% |
| CCn1c(Oc2cccc(N3CCN(C)CC3)c2)nnc1[C@@H](C)NS(=O)(=O)c1c(C)cc(OC)c(C)c1C [Compound 558] | 64.8% |
| CCn1c(Oc2cccc(N3CCN(C)CC3)c2)nnc1[C@@H](C)NS(=O)(=O)c1cc(Br)ccc1OC [Compound 559] | 79.3% |
| CCn1c(Oc2cccc(N3CCN(C)CC3)c2)nnc1[C@@H](C)NS(=O)(=O)c1cc(F)ccc1C [Compound 560] | 74.4% |
| CCn1c(Oc2cccc(N3CCN(C)CC3)c2)nnc1[C@@H](C)NS(=O)(=O)c1cc(C)ccc1OC [Compound 562] | 93.3% |
| CCn1c(Oc2cccc(N3CCN(C)CC3)c2)nnc1[C@@H](C)NS(=O)(=O)c1c(Cl)cc(Cl)cc1Cl [Compound 566] | 88.7% |
| CCn1c(Oc2cccc(N3CCN(C)CC3)c2)nnc1[C@@H](C)NS(=O)(=O)c1ccc(F)cc1F [Compound 568] | 71.1% |
| CCn1c(Oc2cccc(N3CCN(C)CC3)c2)nnc1[C@@H](C)NS(=O)(=O)c1cc(OC)ccc1OC [Compound 569] | 75% |
| CCn1c(Oc2cccc(N3CCN(C)CC3)c2)nnc1[C@@H](C)NS(=O)(=O)c1ccc(F)cc1Cl [Compound 570] | 77.4% |

The next lines start with the values.

| inhibition at 10 µM | Compound |
| --- | --- |
| 84% | CCn1c(Oc2cccc(N3CCN(C)CC3)c2)nnc1[C@@H](C)NS(=O)(=O)c1ccccc1 [Compound 498] |
| 108% | CCn1c(Oc2cccc(N3CCN(C)CC3)c2)nnc1[C@@H](C)NS(=O)(=O)c1ccc(Cl)cc1 [Compound 505] |
| 83.2% | CCn1c(Oc2cccc(N3CCN(C)CC3)c2)nnc1[C@@H](C)NS(=O)(=O)c1ccccc1C#N [Compound 506] |
| 84.8% | CCn1c(Oc2cccc(N3CCN(C)CC3)c2)nnc1[C@@H](C)NS(=O)(=O)c1ccc(Cl)c2nonc12 [Compound 507] |
| 98.6% | CCn1c(Oc2cccc(N3CCN(C)CC3)c2)nnc1[C@@H](C)NS(=O)(=O)c1cc(Cl)ccc1Cl [Compound 511] |
| 60.7% | CCn1c(Oc2cccc(N3CCN(C)CC3)c2)nnc1[C@@H](C)NS(=O)(=O)c1c(Cl)cccc1Cl [Compound 512] |
| 69.6% | CCn1c(Oc2cccc(N3CCN(C)CC3)c2)nnc1[C@@H](C)NS(=O)(=O)c1c(C)cc(C)cc1C [Compound 517] |
| 111% | CCn1c(Oc2cccc(N3CCN(C)CC3)c2)nnc1[C@@H](C)NS(=O)(=O)c1ccc(OC)cc1 [Compound 518] |
| 69.9% | CCn1c(Oc2cccc(N3CCN(C)CC3)c2)nnc1[C@@H](C)NS(=O)(=O)c1ccc(S(C)(=O)=O)cc1 [Compound 520] |
| 98.4% | CCn1c(Oc2cccc(N3CCN(C)CC3)c2)nnc1[C@@H](C)NS(=O)(=O)c1cccc2ccccc12 [Compound 522] |
| 106% | CCn1c(Oc2cccc(N3CCN(C)CC3)c2)nnc1[C@@H](C)NS(=O)(=O)c1ccc(C)cc1 [Compound 528] |
| 100% | CCn1c(Oc2cccc(N3CCN(C)CC3)c2)nnc1[C@@H](C)NS(=O)(=O)c1ccccc1C [Compound 531] |
| 50.3% | CCn1c(Oc2cccc(N3CCN(C)CC3)c2)nnc1[C@@H](C)NS(=O)(=O)c1ccc2c(c1)CN(C(=O)C(F)(F)F)CC2 [Compound 536] |
| 97.1% | CCn1c(Oc2cccc(N3CCN(C)CC3)c2)nnc1[C@@H](C)NS(=O)(=O)c1ccc(-c2csnn2)s1 [Compound 538] |
| 53.9% | CCn1c(Oc2cccc(N3CCN(C)CC3)c2)nnc1[C@@H](C)NS(=O)(=O)c1c(C)nn(C)c1C [Compound 544] |
| 67.2% | CCn1c(Oc2cccc(N3CCN(C)CC3)c2)nnc1[C@@H](C)NS(=O)(=O)c1ccccc1Cl [Compound 552] |
| 92.4% | CCn1c(Oc2cccc(N3CCN(C)CC3)c2)nnc1[C@@H](C)NS(=O)(=O)c1c(C)c(C)c(C)c(C)c1C [Compound 561] |
| 64.1% | CCn1c(Oc2cccc(N3CCN(C)CC3)c2)nnc1[C@@H](C)NS(=O)(=O)c1ccccc1OC(F)(F)F [Compound 563] |
| 105% | CCn1c(Oc2cccc(N3CCN(C)CC3)c2)nnc1[C@@H](C)NS(=O)(=O)c1ccc(C#N)cc1 [Compound 564] |
| 102% | CCn1c(Oc2cccc(N3CCN(C)CC3)c2)nnc1[C@@H](C)NS(=O)(=O)c1ccc(Cl)cc1Cl [Compound 567] |
| 55.7% | CCn1c(Oc2cccc(N3CCN(C)CC3)c2)nnc1[C@@H](C)NS(=O)(=O)c1ccccc1F [Compound 571] |
